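Where inhibition never reached the appropriate level, the endpoint shown equals the highest concentration tested. Otherwise, values were interpolated linearly from a five-concentration, 48-hour dose response in 96-well plates. TGI is the concentration that stops growth completely.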
Each compound was assayed on HOP-62 NSCLC (assay: NCI tumour cell line growth inhibition, 48 h).

| Compound | TGI [µM] |
| --- | --- |
| CC(C)N(C(=O)C12C3(C(=O)OC(C)(C)C)C4C5(C#N)C3C1(C(=O)OC(C)(C)C)C5C42C(=O)OC(C)(C)C)C(C)C (stereo unspecified) | > 100 |
| CCOC(=O)N1CCC2(CC1)CC(=O)N(Nc1ccccc1)C2=O | > 100 |
| O=C1CNN=C(CSc2nc3ccc(I)cc3c(=O)n2Cc2ccccc2)N1 | > 100 |
| [N-]=[N+]=NCC1OCC(O)C(OCc2ccccc2)C1OCc1ccccc1 (stereo unspecified) | > 100 |

Each compound was assayed on HOP-92 NSCLC (assay: NCI tumour cell line growth inhibition, 48 h).

| Compound | TGI [µM] |
| --- | --- |
| O=C(Cn1nnc(-c2ccccc2)n1)N/N=C/c1cn(Cc2ccc(Cl)cc2Cl)c2ccccc12 | > 100 |
| CC(C)N(C(=O)C12C3(C(=O)OC(C)(C)C)C4C5(C#N)C3C1(C(=O)OC(C)(C)C)C5C42C(=O)OC(C)(C)C)C(C)C (stereo unspecified) | > 100 |
| CCOC(=O)N1CCC2(CC1)CC(=O)N(Nc1ccccc1)C2=O | > 100 |
| O=C1CNN=C(CSc2nc3ccc(I)cc3c(=O)n2Cc2ccccc2)N1 | 72 |
| [N-]=[N+]=NCC1OCC(O)C(OCc2ccccc2)C1OCc1ccccc1 (stereo unspecified) | > 100 |

Each compound was assayed on HS 578T breast (assay: NCI tumour cell line growth inhibition, 48 h).

| Compound | TGI [µM] |
| --- | --- |
| O=C(Cn1nnc(-c2ccccc2)n1)N/N=C/c1cn(Cc2ccc(Cl)cc2Cl)c2ccccc12 | > 100 |
| CC(C)N(C(=O)C12C3(C(=O)OC(C)(C)C)C4C5(C#N)C3C1(C(=O)OC(C)(C)C)C5C42C(=O)OC(C)(C)C)C(C)C (stereo unspecified) | > 100 |
| CCOC(=O)N1CCC2(CC1)CC(=O)N(Nc1ccccc1)C2=O | > 100 |
| O=C1CNN=C(CSc2nc3ccc(I)cc3c(=O)n2Cc2ccccc2)N1 | > 100 |
| [N-]=[N+]=NCC1OCC(O)C(OCc2ccccc2)C1OCc1ccccc1 (stereo unspecified) | > 100 |

The compounds below were run on HT29 colon (assay: NCI tumour cell line growth inhibition, 48 h).

| Compound | TGI [µM] |
| --- | --- |
| O=C(Cn1nnc(-c2ccccc2)n1)N/N=C/c1cn(Cc2ccc(Cl)cc2Cl)c2ccccc12 | > 100 |
| CC(C)N(C(=O)C12C3(C(=O)OC(C)(C)C)C4C5(C#N)C3C1(C(=O)OC(C)(C)C)C5C42C(=O)OC(C)(C)C)C(C)C (stereo unspecified) | > 100 |
| CCOC(=O)N1CCC2(CC1)CC(=O)N(Nc1ccccc1)C2=O | > 100 |
| O=C1CNN=C(CSc2nc3ccc(I)cc3c(=O)n2Cc2ccccc2)N1 | > 100 |
| [N-]=[N+]=NCC1OCC(O)C(OCc2ccccc2)C1OCc1ccccc1 (stereo unspecified) | > 100 |

The compounds below were run on IGROV1 ovarian (assay: NCI tumour cell line growth inhibition, 48 h).

| Compound | TGI [µM] |
| --- | --- |
| O=C(Cn1nnc(-c2ccccc2)n1)N/N=C/c1cn(Cc2ccc(Cl)cc2Cl)c2ccccc12 | > 100 |
| CC(C)N(C(=O)C12C3(C(=O)OC(C)(C)C)C4C5(C#N)C3C1(C(=O)OC(C)(C)C)C5C42C(=O)OC(C)(C)C)C(C)C (stereo unspecified) | > 100 |
| CCOC(=O)N1CCC2(CC1)CC(=O)N(Nc1ccccc1)C2=O | > 100 |
| O=C1CNN=C(CSc2nc3ccc(I)cc3c(=O)n2Cc2ccccc2)N1 | 55.6 |
| [N-]=[N+]=NCC1OCC(O)C(OCc2ccccc2)C1OCc1ccccc1 (stereo unspecified) | > 100 |

These compounds were tested on K-562 leukemia (assay: NCI tumour cell line growth inhibition, 48 h).

| Compound | TGI [µM] |
| --- | --- |
| O=C(Cn1nnc(-c2ccccc2)n1)N/N=C/c1cn(Cc2ccc(Cl)cc2Cl)c2ccccc12 | > 100 |
| CC(C)N(C(=O)C12C3(C(=O)OC(C)(C)C)C4C5(C#N)C3C1(C(=O)OC(C)(C)C)C5C42C(=O)OC(C)(C)C)C(C)C (stereo unspecified) | > 100 |
| CCOC(=O)N1CCC2(CC1)CC(=O)N(Nc1ccccc1)C2=O | > 100 |
| O=C1CNN=C(CSc2nc3ccc(I)cc3c(=O)n2Cc2ccccc2)N1 | > 100 |
| [N-]=[N+]=NCC1OCC(O)C(OCc2ccccc2)C1OCc1ccccc1 (stereo unspecified) | > 100 |

The compounds below were run on KM12 colon (assay: NCI tumour cell line growth inhibition, 48 h).

| Compound | TGI [µM] |
| --- | --- |
| O=C(Cn1nnc(-c2ccccc2)n1)N/N=C/c1cn(Cc2ccc(Cl)cc2Cl)c2ccccc12 | > 100 |
| CC(C)N(C(=O)C12C3(C(=O)OC(C)(C)C)C4C5(C#N)C3C1(C(=O)OC(C)(C)C)C5C42C(=O)OC(C)(C)C)C(C)C (stereo unspecified) | > 100 |
| CCOC(=O)N1CCC2(CC1)CC(=O)N(Nc1ccccc1)C2=O | > 100 |
| O=C1CNN=C(CSc2nc3ccc(I)cc3c(=O)n2Cc2ccccc2)N1 | 93.2 |
| [N-]=[N+]=NCC1OCC(O)C(OCc2ccccc2)C1OCc1ccccc1 (stereo unspecified) | > 100 |

Each compound was assayed on LOX IMVI melanoma (assay: NCI tumour cell line growth inhibition, 48 h).

| Compound | TGI [µM] |
| --- | --- |
| O=C(Cn1nnc(-c2ccccc2)n1)N/N=C/c1cn(Cc2ccc(Cl)cc2Cl)c2ccccc12 | > 100 |
| CC(C)N(C(=O)C12C3(C(=O)OC(C)(C)C)C4C5(C#N)C3C1(C(=O)OC(C)(C)C)C5C42C(=O)OC(C)(C)C)C(C)C (stereo unspecified) | 29 |
| CCOC(=O)N1CCC2(CC1)CC(=O)N(Nc1ccccc1)C2=O | > 100 |
| O=C1CNN=C(CSc2nc3ccc(I)cc3c(=O)n2Cc2ccccc2)N1 | 33.4 |
| [N-]=[N+]=NCC1OCC(O)C(OCc2ccccc2)C1OCc1ccccc1 (stereo unspecified) | > 100 |

What follows are compounds tested on M14 melanoma (assay: NCI tumour cell line growth inhibition, 48 h).

| Compound | TGI [µM] |
| --- | --- |
| O=C(Cn1nnc(-c2ccccc2)n1)N/N=C/c1cn(Cc2ccc(Cl)cc2Cl)c2ccccc12 | > 100 |
| CC(C)N(C(=O)C12C3(C(=O)OC(C)(C)C)C4C5(C#N)C3C1(C(=O)OC(C)(C)C)C5C42C(=O)OC(C)(C)C)C(C)C (stereo unspecified) | > 100 |
| CCOC(=O)N1CCC2(CC1)CC(=O)N(Nc1ccccc1)C2=O | > 100 |
| O=C1CNN=C(CSc2nc3ccc(I)cc3c(=O)n2Cc2ccccc2)N1 | > 100 |
| [N-]=[N+]=NCC1OCC(O)C(OCc2ccccc2)C1OCc1ccccc1 (stereo unspecified) | > 100 |

Each compound was assayed on MALME-3M melanoma (assay: NCI tumour cell line growth inhibition, 48 h).

| Compound | TGI [µM] |
| --- | --- |
| CCOC(=O)N1CCC2(CC1)CC(=O)N(Nc1ccccc1)C2=O | > 100 |
| O=C1CNN=C(CSc2nc3ccc(I)cc3c(=O)n2Cc2ccccc2)N1 | 54.2 |

The compounds below were run on MCF7 breast (assay: NCI tumour cell line growth inhibition, 48 h).

| Compound | TGI [µM] |
| --- | --- |
| O=C(Cn1nnc(-c2ccccc2)n1)N/N=C/c1cn(Cc2ccc(Cl)cc2Cl)c2ccccc12 | > 100 |
| CC(C)N(C(=O)C12C3(C(=O)OC(C)(C)C)C4C5(C#N)C3C1(C(=O)OC(C)(C)C)C5C42C(=O)OC(C)(C)C)C(C)C (stereo unspecified) | 43.9 |
| CCOC(=O)N1CCC2(CC1)CC(=O)N(Nc1ccccc1)C2=O | > 100 |
| O=C1CNN=C(CSc2nc3ccc(I)cc3c(=O)n2Cc2ccccc2)N1 | > 100 |
| [N-]=[N+]=NCC1OCC(O)C(OCc2ccccc2)C1OCc1ccccc1 (stereo unspecified) | > 100 |

These compounds were tested on MDA-MB-231 breast (assay: NCI tumour cell line growth inhibition, 48 h).

| Compound | TGI [µM] |
| --- | --- |
| O=C(Cn1nnc(-c2ccccc2)n1)N/N=C/c1cn(Cc2ccc(Cl)cc2Cl)c2ccccc12 | > 100 |
| CC(C)N(C(=O)C12C3(C(=O)OC(C)(C)C)C4C5(C#N)C3C1(C(=O)OC(C)(C)C)C5C42C(=O)OC(C)(C)C)C(C)C (stereo unspecified) | > 100 |
| CCOC(=O)N1CCC2(CC1)CC(=O)N(Nc1ccccc1)C2=O | > 100 |
| O=C1CNN=C(CSc2nc3ccc(I)cc3c(=O)n2Cc2ccccc2)N1 | 38.9 |
| [N-]=[N+]=NCC1OCC(O)C(OCc2ccccc2)C1OCc1ccccc1 (stereo unspecified) | > 100 |

What follows are compounds tested on MDA-MB-435 (assay: NCI tumour cell line growth inhibition, 48 h).

| Compound | TGI [µM] |
| --- | --- |
| O=C(Cn1nnc(-c2ccccc2)n1)N/N=C/c1cn(Cc2ccc(Cl)cc2Cl)c2ccccc12 | > 100 |
| CC(C)N(C(=O)C12C3(C(=O)OC(C)(C)C)C4C5(C#N)C3C1(C(=O)OC(C)(C)C)C5C42C(=O)OC(C)(C)C)C(C)C (stereo unspecified) | > 100 |
| CCOC(=O)N1CCC2(CC1)CC(=O)N(Nc1ccccc1)C2=O | > 100 |
| O=C1CNN=C(CSc2nc3ccc(I)cc3c(=O)n2Cc2ccccc2)N1 | 97.6 |
| [N-]=[N+]=NCC1OCC(O)C(OCc2ccccc2)C1OCc1ccccc1 (stereo unspecified) | > 100 |

These compounds were tested on MDA-N (assay: NCI tumour cell line growth inhibition, 48 h).

| Compound | TGI [µM] |
| --- | --- |
| O=C(Cn1nnc(-c2ccccc2)n1)N/N=C/c1cn(Cc2ccc(Cl)cc2Cl)c2ccccc12 | > 100 |
| CC(C)N(C(=O)C12C3(C(=O)OC(C)(C)C)C4C5(C#N)C3C1(C(=O)OC(C)(C)C)C5C42C(=O)OC(C)(C)C)C(C)C (stereo unspecified) | > 100 |
| CCOC(=O)N1CCC2(CC1)CC(=O)N(Nc1ccccc1)C2=O | > 100 |
| O=C1CNN=C(CSc2nc3ccc(I)cc3c(=O)n2Cc2ccccc2)N1 | 87.2 |
| [N-]=[N+]=NCC1OCC(O)C(OCc2ccccc2)C1OCc1ccccc1 (stereo unspecified) | > 100 |

What follows are compounds tested on MOLT-4 leukemia (assay: NCI tumour cell line growth inhibition, 48 h).

| Compound | TGI [µM] |
| --- | --- |
| O=C(Cn1nnc(-c2ccccc2)n1)N/N=C/c1cn(Cc2ccc(Cl)cc2Cl)c2ccccc12 | > 100 |
| CC(C)N(C(=O)C12C3(C(=O)OC(C)(C)C)C4C5(C#N)C3C1(C(=O)OC(C)(C)C)C5C42C(=O)OC(C)(C)C)C(C)C (stereo unspecified) | 40.1 |
| CCOC(=O)N1CCC2(CC1)CC(=O)N(Nc1ccccc1)C2=O | > 100 |
| O=C1CNN=C(CSc2nc3ccc(I)cc3c(=O)n2Cc2ccccc2)N1 | > 100 |
| [N-]=[N+]=NCC1OCC(O)C(OCc2ccccc2)C1OCc1ccccc1 (stereo unspecified) | > 100 |
